In patent EP4671240A1, “SALT CONTAINING AROMATIC RING DERIVATIVE ANTAGONIST, PREPARATION METHOD THEREFOR, AND APPLICATION THEREOF” (Jiangsu Hansoh Pharmaceutical Group Co., Ltd., priority 2023, dated 2024):
Counter-ions that a name gives are not always drawn.

How the values were obtained:
[1] = Solid stability experiment of crystal forms of salts; assay type: physicochemical; conditions: for XRPD: after treatment under light, high humidity, high temperature and 50°C/RH75%
Text: To investigate the physical and chemical stability of crystal forms of the compound under high temperature, high humidity, high temperature and high humidity, and light conditions, thereby providing a basis for crystal form screening and storage.
4.1.3.1 Appropriate amounts of crystal form B of the hydrochloride salt, crystal form A of the methanesulfonic acid salt, crystal form A of the sulphuric acid salt, and crystal form A of the hydrobromic acid salt of the compound 4'-((2-butyl-4-oxo-1,3-diazaspiro[4.4]non-1-en-3-yl)methyl-d2)-N-(4-chloro-5-methylisoxazol-3-yl)-2'-(ethoxymethyl)-[1,1'-biphenyl]-2-sulfonamide were weighed and treated under light (5000±500lux), high humidity (25°C, 92.5%), high temperature (60°C), and 50°C±2°C/RH75%±5% for a certain period of time, and then their XRPD, purity and impurity content data were measured.
The maximum individual impurity increase for crystal form B of hydrochloride salt, crystal form A of methanesulfonic acid salt and crystal form A of sulphuric acid salt was determined by comparing Day 20 with Day 0, whereas for crystal form A of hydrobromic acid salt, it was determined by comparing Day 10 with Day 0.

[2] = Hygroscopicity experiment (dynamic vapor sorption); assay type: physicochemical
Text: To investigate the hygroscopicity of crystal form B of the hydrochloride salt of the compound 4'-((2-butyl-4-oxo-1,3-diazaspiro[4.4]non-1-en-3-yl)methyl-d2)-N-(4-chloro-5-methylisoxazol-3-yl)-2'-(ethoxymethyl)-[1,1'-biphenyl]-2-sulfonamide under different relative humidity conditions, thereby providing a basis for compound crystal form screening and storage.
Crystal form B of the hydrochloride salt of the compound 4'-((2-butyl-4-oxo-1,3-diazaspiro[4.4]non-1-en-3-yl)methyl-d2)-N-(4-chloro-5-methylisoxazol-3-yl)-2'-(ethoxymethyl)-[1,1'-biphenyl]-2-sulfonamide was placed in saturated water vapor with different relative humidity to allow the compound and the water vapor to reach dynamic equilibrium, and the percentage of hygroscopic weight gain of the compound after equilibrium was calculated.

[3] = Liver microsomal metabolism stability assay (rat); assay type: in vitro ADME; conditions: rat liver microsomes, 60 min, compound 1 µM
Description: (§1) The objective of this experiment was to detect the stability of the example compounds in liver microsomes of rats, dogs and humans.
(§2) Formulation of compound working solution: compound stock solution was added to phosphate buffer to a final concentration of 20 µM.
(§3) Dilution was performed with 100 mM phosphate buffer to a final concentration of 0.625 mg/mL.
(§4) NADPH (reduced nicotinamide adenine dinucleotide phosphate) and UDPGA (uridine diphosphate glucuronic acid) were weighed, and 100 mM phosphate buffer was added to a final concentration of 20 mM.
(§5) 1 mg of Alamethicin was weighed, and 200 µL of DMSO was added to formulate a 5 mg/mL solution. Then dilution was performed with phosphate buffer to a final concentration of 50 µg/mL.
(§6) Stop solution: cold acetonitrile containing 100 ng/mL labetalol hydrochloride and 400 ng/mL tolbutamide as internal standards.
(§7) 400 µL of formulated liver microsomes, 25 µL of compound working solution and 25 µL of Alamethicin were added in sequence to a 96-well plate, and the mixture was pre-incubated at 37°C for 10 min. Then 50 µL of formulated NADPH/UDPGA was added to start the reaction and the mixture was incubated at 37°C. The total volume of the reaction system was 500 µL. The final contents of each component are as follows:
(§8) • Instrument: Shimadzu LC-30 AD; • Chromatographic column: XBridge® C18 (50*4.6 mm, 5 µm particle size); • Mobile phase: A: 0.1% formic acid solution, B: methanol • Elution gradient: 0.2-1.6 min 5% A to 95% A, 3.0-3.1 min 95% A to 5% A • Run time: 4.0 min.
(§9) • Instrument: API5500 liquid chromatography-mass spectrometer, AB Sciex; • Ion source: electrospray ionization source (ESI); • Drying gas: N2, temperature 500°C; • Electrospray voltage: 5000 V; • Detection mode: positive ion detection; • Scan mode: Multiple Reaction Monitoring (MRM) mode.

[4] = Liver microsomal metabolism stability assay (dog); assay type: in vitro ADME; conditions: dog liver microsomes, 60 min, compound 1 µM
Description: as §1, §2, §3, §4, §5, §6, §7, §8, §9

[5] = Liver microsomal metabolism stability assay (human); assay type: in vitro ADME; conditions: human liver microsomes, 60 min, compound 1 µM
Description: as §1, §2, §3, §4, §5, §6, §7, §8, §9

[6] = 50°C&75%RH, Day 20 compared with Day 0
[7] = high humidity 25°C, 92.5% RH, Day 20 compared with Day 0
[8] = high temperature 60°C, Day 20 compared with Day 0
[9] = light 5000±500lux, Day 20 compared with Day 0

Row | SMILES | Maximum individual impurity increase ([1]; 50°C&75%RH, Day 10 compared with Day 0) | XRPD [1] | Maximum individual impurity increase ([1]; high humidity 25°C, 92.5% RH, Day 10 compared with Day 0) | Maximum individual impurity increase ([1]; high temperature 60°C, Day 10 compared with Day 0) | Maximum individual impurity increase [1, 6] | Maximum individual impurity increase [1, 7] | Maximum individual impurity increase [1, 8] | Maximum individual impurity increase [1, 9] | hygroscopic weight gain ([2]; RH80%, 25°C, DVS) | XRPD pattern after moisture absorption and desorption ([2]; after 2 cycles under 0-95% relative humidity) | Rat Remaining rate [3] | Dog Remaining rate [4] | Human Remaining rate [5]
1 | [2H]C([2H])(c1ccc(-c2ccccc2S(=O)(=O)Nc2noc(C)c2Cl)c(COCC)c1)N1C(=O)C2(CCCC2)N=C1CCCC [Crystal form A of hydrobromic acid salt, 4'-((2-butyl-4-oxo-1,3-diazaspiro[4.4]non-1-en-3-yl)methyl-d2)-N-(4-chloro-5-methylisoxazol-3-yl)-2'-(ethoxymethyl)-[1,1'-biphenyl]-2-sulfonamide] | 0.02% | Crystal form unchanged | 0.02% | 0.05% | – | – | – | – | – | – | – | – | –
2 | [2H]C([2H])(c1ccc(-c2ccccc2S(=O)(=O)Nc2noc(C)c2Cl)c(COCC)c1)N1C(=O)C2(CCCC2)N=C1CCCC [Crystal form A of methanesulfonic acid salt] [4'-((2-butyl-4-oxo-1,3-diazaspiro[4.4]non-1-en-3-yl)methyl-d2)-N-(4-chloro-5-methylisoxazol-3-yl)-2'-(ethoxymethyl)-[1,1'-biphenyl]-2-sulfonamide] | – | Crystal form unchanged | – | – | 0.08% | <0.01% | 0.05% | 0.09% | – | – | – | – | –
3 | [2H]C([2H])(c1ccc(-c2ccccc2S(=O)(=O)Nc2noc(C)c2Cl)c(COCC)c1)N1C(=O)C2(CCCC2)N=C1CCCC [Crystal form A of sulphuric acid salt, 4'-((2-butyl-4-oxo-1,3-diazaspiro[4.4]non-1-en-3-yl)methyl-d2)-N-(4-chloro-5-methylisoxazol-3-yl)-2'-(ethoxymethyl)-[1,1'-biphenyl]-2-sulfonamide] | – | Crystal form unchanged | – | – | 0.14% | 0.05% | 0.11% | 0.06% | – | – | – | – | –
4 | [2H]C([2H])(c1ccc(-c2ccccc2S(=O)(=O)Nc2noc(C)c2Cl)c(COCC)c1)N1C(=O)C2(CCCC2)N=C1CCCC [Crystal form B of hydrochloride salt, 4'-((2-butyl-4-oxo-1,3-diazaspiro[4.4]non-1-en-3-yl)methyl-d2)-N-(4-chloro-5-methylisoxazol-3-yl)-2'-(ethoxymethyl)-[1,1'-biphenyl]-2-sulfonamide] | – | Crystal form unchanged | – | – | <0.01% | <0.01% | 0.02% | 0.04% | 0.378% | no change | – | – | –
5 | [2H]C([2H])(OCC)c1cc(CN2C(=O)C3(CCCC3)N=C2CCCC)ccc1-c1ccccc1S(=O)(=O)Nc1noc(C)c1Cl [Example 4, 4'-((2-Butyl-4-oxo-1,3-diazospiro[4.4]non-1-en-3-yl)methyl)-N-(4-chloro-5-methylisoxazol-3-yl)-2'-(ethoxydeuteromethyl)-[1,1'-biphenyl]-2-sulfonamide] | – | – | – | – | – | – | – | – | – | – | 17.1% | 23.9% | 30.7%
